The source of these data is patent US6436918B1, “Steroid sulfatase inhibitors and methods for making and using the same” (Duquesne University of the Holy Ghost, priority 1997, dated 2002).

Usually IC50 stands for the concentration needed to halve the response being measured.

The assay addresses T1, recombinant human estrone sulfatase (Homo sapiens, UniProt P08842).
T1 construct: made in house; host or cells: Chinese Hamster Ovary (CHO) cells
T1 sequence (P08842 22-583): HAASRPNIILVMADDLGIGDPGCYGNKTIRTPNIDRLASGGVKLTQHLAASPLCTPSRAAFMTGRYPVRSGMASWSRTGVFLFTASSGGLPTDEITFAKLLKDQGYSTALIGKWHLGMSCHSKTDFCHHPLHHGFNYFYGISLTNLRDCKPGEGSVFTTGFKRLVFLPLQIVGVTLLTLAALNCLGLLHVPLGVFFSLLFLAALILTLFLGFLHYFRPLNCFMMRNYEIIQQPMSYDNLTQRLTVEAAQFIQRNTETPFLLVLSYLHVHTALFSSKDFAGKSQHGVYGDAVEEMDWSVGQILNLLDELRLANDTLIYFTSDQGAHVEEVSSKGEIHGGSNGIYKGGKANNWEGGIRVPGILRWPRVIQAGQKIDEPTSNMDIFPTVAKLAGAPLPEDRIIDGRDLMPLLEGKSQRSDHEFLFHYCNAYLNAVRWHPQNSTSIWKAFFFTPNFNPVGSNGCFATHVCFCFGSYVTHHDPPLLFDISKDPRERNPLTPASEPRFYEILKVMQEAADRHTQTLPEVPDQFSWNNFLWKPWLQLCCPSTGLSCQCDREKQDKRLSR
In words: in vitro conversion assay: inhibition of conversion of 3H-estrone sulfate to 3H-estrone by estrone sulfatase. Format: biochemical. How it is done:
The compounds prepared according to the methods of the above Examples were tested for biological activity in inhibiting sulfatase activity using an in vitro conversion assay procedure. As will be appreciated by those skilled in the art, this assay is based on inhibition of the conversion of ^3H-estrone sulfate to ^3H-estrone by the enzyme estrone sulfatase. The final volume of the enzyme assay was 0.15 ml. [6.7-^3H] estrone sulfate (final concentration 3.3 nmole/L; 300,000 dpm/tube); an inhibitor at various concentrations in DMSO and recombinant human estrone sulfatase (33 ng/tube) in phosphate buffered saline, containing 0.25 M sucrose and 0.04 M nicotinamide, pH 7, were added to a 1.5 ml microtube. Recombinant human estrone sulfatase was partially purified from Chinese Hamster Ovary (CHO) cells in which human estrone sulfatase cDNA was transfected. The assay began by the addition of the substrate estrone sulfate. After 60 minutes of incubation at 37° C., 0.5 ml of toluene were added to quench the assay. Control samples with no inhibitor were incubated simultaneously. Blank samples were obtained by incubating without estrone sulfatase. The quenched samples were vortexed for 30 seconds and centrifuged (9,000 rpm for 5 minutes). Two hundred and fifty microliters of toluene were obtained from each quenched sample to determine the amount of product formation. Product formation for samples containing an inhibitor was compared to that of control samples (without inhibitors) run simultaneously. This was reported as percent inhibition of control sample which equals
100× Product formation for sample containing inhibitor Product formation for sample with no inhibitor (control)
Each concentration was tested in duplicate in three separate experiments.

Setting [1] is: Table 3 (Example 8; compounds 7, 29d, 29h, 29m), same in vitro conversion assay, read-out: IC50.

The structures appear in SMILES notation. Where two headings read alike, the source gives them in different places.

For the compound `CC(C)CNC(=O)[C@H]1CC[C@H]2[C@@H]3CCc4cc(OS(N)(=O)=O)ccc4[C@H]3CC[C@]12C` [Compound 29d, 17β-(N-Isobutylcarbamoyl)estra-1,3,5(10)-trien-3-yl sulfamate], the IC50 turned out to be 6.5 nM. With `CCCN(C)C(=O)[C@H]1CC[C@H]2[C@@H]3CCc4cc(OS(N)(=O)=O)ccc4[C@H]3CC[C@]12C` [Compound 29m, 17β-(N-methyl-N-Propylcarbamoyl)estra-1,3,5 (10)-trien-3-yl sulfamate], the IC50 was 5.5 nM. With `CC(C)NC(=O)[C@H]1CC[C@H]2[C@@H]3CCc4cc(OS(N)(=O)=O)ccc4[C@H]3CC[C@]12C` [Compound 29h, 17β-(N-Isopropylcarbamnoyl)estra-1,3,5(10)-trien-3-yl sulfamate], under setting [1], the IC50 was 17 nM. Same read-out and setting: to `CCCNC(=O)[C@H]1CC[C@H]2[C@@H]3CCc4cc(OS(N)(=O)=O)ccc4[C@H]3CC[C@]12C` [Compound 7, 17β-(N-Propylcarbamoyl)estra-1,3,5(10)-trien-3-yl sulfamate] belongs 19 nM.
